# Non-standard residues stand in square brackets, D forms with d. Primed or numbered codes have the meaning given here. No end group written: not given here. *: point of attachment. CPQ2 = fluorescent quencher, paired with 5-carboxyfluorescein; 5FAM = O=C1OC2(c3ccc(O)cc3Oc3cc(O)ccc32)c2ccc(C(=O)*)cc21; FAM = 5-carboxyfluorescein (fluorescent label); PEG2′ = PEG spacer
# What was measured:
# [1] = system: protease activity sensed by Probe #102 (cathepsin L, CTSL) in K2 EDTA plasma; assay: Protease inhibitor profiling of Probe #102 cleavage in NASH and healthy plasma; conditions: for effect of inhibitor on signal, in words: Probe #102, NASH and healthy plasma
# Procedure: For this experiment, all plasma samples were prepared individually and diluted 1/10e in PBS with inhibitor added directly to the samples. Inhibitor was prepared at 15× concentration to final. Substrates were diluted in DI water at 18 uM, such that the final concentration on the plate would be 6 uM. All samples were prepared such that their last dilution on the plate would not affect the desired final concentration. 10 ul of each individual sample was pipetted into their corresponding wells, and the plate was then spun down in the centrifuge at 1500 RPM for 30 seconds to coat the bottom of each well with the sample. 5 ul of the 18 uM substrate solution was pipetted into each well being used on a 384 well plate, and then the plate was spun down in the centrifuge at 1500 rpm for 30 seconds. The plate was placed immediately in the plate reader at 37° C. for a 30-minute-long fluorescence kinetic read at 485/535 extended gain.
# To assess the proteolytic cleavage pattern of Probe #102, samples were tested using a pool of broad inhibitors for serine, cysteine, threonine, MMP and aspartic protease family members (broad inhibitor) to assess general protease activity, AEBSF for serine proteases, E64 for cysteine proteases, CTSi for broad cathepsin inhibition of cathepsins L, S, K and B, or specific inhibitors for cathepsin K (L00625), for cathepsin L (SID) or cathepsin B (CA074).
# MMPs in K2 EDTA plasma = assay: Zinc reactivation of MMPs in human K2 EDTA plasma; assay type: biochemical; conditions: for protease activity recovered by Calcium compared to Zinc: Calcium up to 6 mM vs 1 mM Zinc, plasma
# From the text: In this experiment, MMPs are reactivated in K2 EDTA plasma that has been collected with EDTA. EDTA causes chelation of the […] ion and interferes with the stability of the MMPs and has high MMP inhibition activity in vitro. The goal of zinc addition was to reactivate potential MMPs in solution that have been inhibited due to the addition of K2 EDTA.
# To reactivate the MMPs in plasma, the EDTA was completely titrated and bound to the Zinc while the excess zinc in the solution was also used as an activating agent for the MMPs. Zinc chloride (Alfa Aesar) was prepared in ddH2O and fully dissolved. The zinc chloride ([…]) solution was then diluted in an assay buffer designed for MMPs. The plasma samples were prepared in the MMP buffer and the plasma samples were combined with the ZnCl solution in a 3:1 ratio. The mixture was incubated on ice after being combined. While the samples were incubating, the related substrates were prepared for analysis. Substrates used in this experiment were Probes #117, 263, 349, and 417. Samples were added to a substrate of interest once the sample incubation was complete. The mixture was spun, and results were read on a Biotek Synergy H1 at Ex/Em=485/535 using extended dynamic range.
# MMP2 [2] = biological target: T1, MMP2 (Homo sapiens, UniProt P08253); assay: Recombinant MMP2 spike-in to human K2 EDTA plasma with Zinc titration; assay type: biochemical; design: host or cells: spiked into human K2 EDTA plasma
# T1 sequence (P08253 110-660): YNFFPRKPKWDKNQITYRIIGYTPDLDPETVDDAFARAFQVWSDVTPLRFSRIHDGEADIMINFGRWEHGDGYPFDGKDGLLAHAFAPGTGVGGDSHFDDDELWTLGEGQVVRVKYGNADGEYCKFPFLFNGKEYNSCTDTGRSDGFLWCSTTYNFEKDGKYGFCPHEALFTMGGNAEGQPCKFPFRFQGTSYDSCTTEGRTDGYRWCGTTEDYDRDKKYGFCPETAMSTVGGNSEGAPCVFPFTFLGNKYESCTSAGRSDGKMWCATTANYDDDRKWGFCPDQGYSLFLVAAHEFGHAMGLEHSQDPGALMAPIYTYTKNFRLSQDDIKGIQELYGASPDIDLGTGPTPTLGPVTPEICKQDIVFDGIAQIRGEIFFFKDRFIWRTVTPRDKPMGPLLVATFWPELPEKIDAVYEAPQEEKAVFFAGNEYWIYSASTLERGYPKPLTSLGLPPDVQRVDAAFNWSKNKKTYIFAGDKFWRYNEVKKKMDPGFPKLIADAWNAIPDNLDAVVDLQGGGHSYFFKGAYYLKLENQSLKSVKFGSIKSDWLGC
# [3] = system: carboxylesterase 1, phospholipase A2 and lipoprotein lipase; assay: Spiked recombinant enzymes in human plasma with resorufin oleate as substrate; assay type: biochemical
# [4] = system: protease (caspase) activity in mouse plasma; assay: Ex vivo probe assay in plasma of the Jo2 mouse model of fulminant hepatitis; assay type: biochemical; conditions: mouse plasma 3 hours after Jo2 injection
# Procedure: Fulminant hepatitis is induced after injection intraperitoneal of monoclonal antibody anti-CD95 (Jo2, BD biosciences, 4 ug/animal), and mouse plasma samples were collected 3 hours after Jo2 injection.
# The comparison with mass spectrometry data also aligns and confirms high concordance with the ex vivo approach, which is reassuring to confirm the existence of a biologically relevant signal.
# [5] = system: MMP protease signal in mouse plasma; assay: Zinc reactivation of MMPs in mouse plasma, healthy vs NASH; assay type: biochemical; conditions: for Fold change ratio, Zinc Buffer: Zinc MMP buffer
# From the text: To perform this experiment, samples were pipetted into each well of a 384 well plate. […] The plate was kept on ice throughout procedure. […] Then, the place was centrifuged again.
# A summary table of the results can be found in Table 4.
# MMP20 = biological target: T2, MMP20 (Homo sapiens, UniProt O60882); assay: Recombinant protease screen of probes; assay type: biochemical; conditions: recombinant MMP20, 1 h fluorescence read
# T2 sequence (O60882 108-483): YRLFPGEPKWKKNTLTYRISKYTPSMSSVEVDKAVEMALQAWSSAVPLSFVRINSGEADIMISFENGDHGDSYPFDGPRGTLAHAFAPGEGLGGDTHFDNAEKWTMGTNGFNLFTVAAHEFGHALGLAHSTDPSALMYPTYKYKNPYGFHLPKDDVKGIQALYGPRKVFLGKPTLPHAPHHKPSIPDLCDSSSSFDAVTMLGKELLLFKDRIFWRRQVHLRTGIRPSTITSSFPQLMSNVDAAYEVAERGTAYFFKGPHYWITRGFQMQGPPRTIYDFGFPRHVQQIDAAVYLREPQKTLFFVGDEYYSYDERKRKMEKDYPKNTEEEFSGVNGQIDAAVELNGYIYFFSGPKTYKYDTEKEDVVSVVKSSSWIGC
# Procedure: (§1) To determine different probes' ability to cleave MMPs and/or DPP4, samples were pipetted into each well in a 384 well plate. […] The plate was centrifuged again, and the plate was then placed into the plate reader for a 1 h fluorescence read.
# MMP2 [6] = biological target: T1, MMP2; assay: Recombinant protease screen of probes; assay type: biochemical; conditions: recombinant MMP2, 1 h fluorescence read
# Procedure: as §1
# MMP13 = MMP13 (Homo sapiens, UniProt P45452); assay: Recombinant protease screen of probes; assay type: biochemical; conditions: recombinant MMP13, 1 h fluorescence read
# Procedure: as §1
# [7] = system: protease activity in COVID and healthy plasma; assay: Ex vivo probe assay in COVID and healthy plasma (K2 EDTA and Lithium Heparin); assay type: biochemical; conditions: K2 EDTA samples
# DPP4 = DPP4 (Homo sapiens, UniProt P27487); assay: Recombinant protease screen of probes; assay type: biochemical; conditions: recombinant DPP4, 1 h fluorescence read
# Chain of DPP4 (P27487 whole entry, species assumed): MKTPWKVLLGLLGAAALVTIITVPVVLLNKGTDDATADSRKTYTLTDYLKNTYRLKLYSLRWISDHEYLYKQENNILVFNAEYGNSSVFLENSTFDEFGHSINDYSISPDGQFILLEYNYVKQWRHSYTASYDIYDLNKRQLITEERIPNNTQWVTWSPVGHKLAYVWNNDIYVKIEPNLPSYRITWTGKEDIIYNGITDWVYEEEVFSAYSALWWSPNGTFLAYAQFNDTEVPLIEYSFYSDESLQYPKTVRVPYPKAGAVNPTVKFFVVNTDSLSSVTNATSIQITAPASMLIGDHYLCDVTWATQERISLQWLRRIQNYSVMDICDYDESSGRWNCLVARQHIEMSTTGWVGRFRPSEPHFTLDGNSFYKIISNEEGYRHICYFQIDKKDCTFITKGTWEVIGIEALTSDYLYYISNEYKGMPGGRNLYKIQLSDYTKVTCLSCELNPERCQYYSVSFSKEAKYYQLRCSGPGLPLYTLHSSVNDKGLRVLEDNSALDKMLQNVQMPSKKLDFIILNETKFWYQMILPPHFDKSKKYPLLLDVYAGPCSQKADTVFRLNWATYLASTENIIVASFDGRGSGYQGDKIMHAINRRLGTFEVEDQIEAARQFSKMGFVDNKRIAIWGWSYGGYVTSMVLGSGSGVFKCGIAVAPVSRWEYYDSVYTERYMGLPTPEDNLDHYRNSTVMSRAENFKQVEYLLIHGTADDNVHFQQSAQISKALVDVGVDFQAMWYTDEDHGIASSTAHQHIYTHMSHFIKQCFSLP
# Procedure: as §1
compound,measurement,setting,value
NCCc1ccc(S(=O)(=O)F)cc1 [AEBSF],decrease of signal in NASH samples by inhibitor,"[1]; Probe #102, NASH plasma",65%
same,decrease of signal in healthy samples by inhibitor,"[1]; Probe #102, healthy plasma",60%
CCCNC(=O)[C@H]1O[C@@H]1C(=O)N[C@H](C(=O)N1CCC[C@H]1C(=O)O)[C@@H](C)CC [CA074],"effect of inhibitor on signal, in words",[1],did not significantly decrease signal
[Ca] [Calcium],protease activity recovered by Calcium compared to Zinc,MMPs in K2 EDTA plasma,minimal protease activity is recovered
same,protease activity recovered by Calcium compared to Zinc,MMPs in K2 EDTA plasma; listed as calcium,does not show similar activation effects
O=C([O-])CN(CCN(CC(=O)O)CC(=O)O)CC(=O)[O-].[K+].[K+] [K2 EDTA],activity of recombinant MMP2 spiked into human K2 EDTA plasma,MMP2 [2],completely deactivated
"CC(C)C[C@H](NC(=O)[C@H]1O[C@@H]1C(=O)O)C(=O)NCCCCN=C(N)N [Probe E64, E64]","effect of inhibitor on signal, in words",[1],decreased NASH signal significantly
CN1CCN(c2nc(-c3ccc(C(=O)NC4(C(=O)NCC#N)CCCCC4)cc3)cs2)CC1 [Probe L006235],"effect of inhibitor on signal, in words",[1],did not significantly decrease signal
"[Cl-].[Cl-].[Zn+2] [Zinc, Zinc chloride]",activity of recombinant MMP2 spiked into human K2 EDTA plasma,MMP2 [2],capable of reviving the MMP2 activity in plasma
same,optimal Zinc concentration,"MMPs in K2 EDTA plasma; across all vendors tested, Probe #349",1 mM
CCCC(=O)O [butyrate],suitability as substrate for detection of enzymes,[3],promising for detection of broad range of enzymes
"Probe #8: Caspase centric probe (5FAM-GVDVADGK(CPQ2)[PEG2′][dK][dK]GC; also: 5-FAM, CPQ2 quencher, PEG2, D-Lys-D-Lys-GC)",contrast between healthy and Jo2 samples,[4],show contrast that is specific and sensitive to the Jo2 model
"Probe #12: Caspase centric probe (5FAM-GDEVDGK(CPQ2)[PEG2′][dK][dK]GC; also: 5-FAM, CPQ2 quencher, PEG2, D-Lys-D-Lys-GC)",contrast between healthy and Jo2 samples,[4],show contrast that is specific and sensitive to the Jo2 model
"Probe #117: probe whose peptide linker is SEQ ID No 117 ({FAM}-GAALHNDGK(CPQ2)[PEG2′][dK][dK]-NH2; also: FAM, CPQ2 quencher, PEG2, D-Lys-D-Lys, amide)","Fold change ratio, Zinc Buffer",[5],2.11
same,"Fold change ratio, Normal Buffer",[5],1.47
same,protease sensed by probe,MMP20,sensed
same,protease sensed by probe,MMP2 [6],sensed
"Probe #263: probe whose peptide linker is SEQ ID No 263 ({FAM}-GQKAAWDGK(CPQ2)-NH2; also: FAM, CPQ2 quencher)","Fold change ratio, Zinc Buffer",[5],2.09
same,"Fold change ratio, Normal Buffer",[5],1.7
same,protease sensed by probe,MMP13,sensed
"Probe #409: the SARS CoV2 coronavirus substrate (SARS-COV2 3C protease) (GTSAVLQSGFRKGK; also: 5-FAM, CPQ2 quencher, PEG2-kk-GC)",contrast between COVID and healthy samples,[7],modest contrast
"Probe #411: probe of Table 1; sensed DPP4 (5FAM-GAAFAGK(CPQ2)[PEG2′][dK][dK]GC; also: 5-FAM, CPQ2 quencher, PEG2, D-Lys-D-Lys-GC)","Fold change ratio, Zinc Buffer",[5],2.52
same,"Fold change ratio, Normal Buffer",[5],1.88
same,protease sensed by probe,DPP4,sensed
Resorufin oleate,suitability as substrate for detection of enzymes,[3],promising for detection of broad range of enzymes
